As a reminder, the pKi is the negative decadic logarithm of the Ki, by convention in mol/L.

Test [1] deals with T1, recombinant human prolyl oligopeptidase (Homo sapiens, UniProt P48147).
T1 construct: made in house; host or cells: E. coli
T1 sequence (P48147 1-710): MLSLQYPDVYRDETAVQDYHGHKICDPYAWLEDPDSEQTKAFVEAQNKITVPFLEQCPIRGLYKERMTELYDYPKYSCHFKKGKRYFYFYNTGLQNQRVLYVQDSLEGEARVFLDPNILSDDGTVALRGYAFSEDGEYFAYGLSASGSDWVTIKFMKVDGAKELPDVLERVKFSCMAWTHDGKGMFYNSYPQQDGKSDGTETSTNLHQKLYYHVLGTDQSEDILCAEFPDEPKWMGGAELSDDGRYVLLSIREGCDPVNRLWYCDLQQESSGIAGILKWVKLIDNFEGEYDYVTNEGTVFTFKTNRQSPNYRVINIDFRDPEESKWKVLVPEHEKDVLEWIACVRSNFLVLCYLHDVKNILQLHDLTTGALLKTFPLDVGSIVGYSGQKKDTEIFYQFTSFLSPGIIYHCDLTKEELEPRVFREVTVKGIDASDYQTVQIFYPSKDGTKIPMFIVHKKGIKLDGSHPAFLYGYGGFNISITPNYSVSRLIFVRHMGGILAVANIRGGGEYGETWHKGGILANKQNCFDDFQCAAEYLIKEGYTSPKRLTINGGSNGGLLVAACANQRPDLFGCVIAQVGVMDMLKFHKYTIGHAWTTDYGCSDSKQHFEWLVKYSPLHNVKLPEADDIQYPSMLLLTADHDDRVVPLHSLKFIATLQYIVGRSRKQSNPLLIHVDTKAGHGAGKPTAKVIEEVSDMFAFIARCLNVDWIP
Put plainly: Cross reacting enzymes: prolyl oligopeptidase. The following applies: concentration range 1*10^−4 M-5*10^−8 M. In kind it is biochemical. The procedure:
Glutaminyl pyrrolidine or glutaminyl thiazolidine were tested for their cross reacting potency against dipeptidyl peptidase I, prolyl oligopeptidase and prolidase.
Prolyl oligopeptidase (EC 3.4.21.26) is a serine type endoprotease which cleaves off peptides at the N-terminal part of the Xaa-Pro bond (Walter, R., Shlank, H., Glass, J. D., Schwartz, I. L. & Kerenyi, T. D., 1971, Science, 173, 827-829). Substrates are peptides with a molecular weight up to 3000 Da. The enzyme used was a recombinant human prolyl oligopeptidase. Recombinant expression was performed in E. coli under standard conditions as described elsewhere in the state of the art. 100 μL glutaminyl pyrrolidine or glutaminyl thiazolidine in an concentration range of 1*10^−4 M-5*10^−8 M were admixed with 100 μL buffer solution (40 mM HEPES, pH 7.6, 0.015% Brij, 1 mM DTT) and 20 μL POP solution. The assay mixture was pre-incubated at 30° C. for 15 min After pre-incubation, 50 μL glycylprolylprolyl-4-nitroaniline solution (0.29 mM) were added and measurement of yellow color development due to 4-nitroaniline release was performed at 30° C. and λ=405 nm for 10 min using a plate reader (sunrise, Tecan, Crailsheim, Germany). The IC 50-values were calculated using Graphit 4.0.15 (Erithacus Software, Ltd., UK). No inhibition of POP activity by glutaminyl pyrrolidine or glutaminyl thiazolidine was found.

For test [2], the target named is T2, porcine DP II (Sus scrofa, UniProt A0A5G2QK18).
T2 construct: The enzyme used was purified from porcine kidney; from tissue; host or cells: porcine kidney
Description: Inhibition of DP IV-like enzymes: dipeptidyl peptidase II. In kind it is biochemical. The note with it: substrate lysylalanylaminomethylcoumarine, pH 7.6, 30 °C. As for the experimental part: DP II (3.4.14.2) releases N-terminal dipeptides from oligopeptides if the N-terminus is not protonated (McDonald, J. K., Ellis, S. & Reilly, T. J., 1966, J Biol. Chem., 241, 1494-1501). Pro and Ala in P1-position are preferred residues. The enzyme activity is described as DPIV-like activity, but DP II has an acidic pH-optimum. The enzyme used was purified from porcine kidney. 100 μL glutaminyl pyrrolidine or glutaminyl thiazolidine in an concentration range of 1*10^−4M-5*10^−8M were admixed with 100 μL buffer solution (40 mM HEPES, pH 7.6, 0.015% Brij, 1 mM DTT), 50 μL lysylalanylaminomethylcoumarine solution (5 mM) and 20 μl porcine DP II (250 fold diluted in buffer solution). Fluorescence measurement was performed at 30° C. and λexiatation=380 nm, λemission=465 nm for 25 min using a plate reader (HTS7000 plus, Applied Biosystems, Weiterstadt, Germany).

Molecules are shown by their SMILES. pKi: −log10 of the molar value.

T2 sequence (A0A5G2QK18 28-502): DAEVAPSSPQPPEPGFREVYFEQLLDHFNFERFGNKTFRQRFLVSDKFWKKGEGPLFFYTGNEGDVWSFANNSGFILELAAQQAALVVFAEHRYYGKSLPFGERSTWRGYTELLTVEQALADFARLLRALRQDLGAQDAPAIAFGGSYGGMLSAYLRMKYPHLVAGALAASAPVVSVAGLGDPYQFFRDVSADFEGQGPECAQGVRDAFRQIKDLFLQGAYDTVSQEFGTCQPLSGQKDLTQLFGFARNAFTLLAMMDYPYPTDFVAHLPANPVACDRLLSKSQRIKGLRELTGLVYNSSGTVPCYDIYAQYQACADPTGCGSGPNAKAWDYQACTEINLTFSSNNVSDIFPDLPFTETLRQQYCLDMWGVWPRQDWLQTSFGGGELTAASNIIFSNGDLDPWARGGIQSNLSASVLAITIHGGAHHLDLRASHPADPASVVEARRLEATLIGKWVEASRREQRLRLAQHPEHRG

For the molecule `NC(=O)CC[C@H](N)C(=O)N1CCCC1` [glutaminyl pyrrolidine], the “inhibition of POP activity” value in test [1] is given as “No inhibition”. Further, in test [2], the pKi is 4.07.

Take `NC(=O)CC[C@H](N)C(=O)N1CCSC1` [glutaminyl thiazolidine]: the “inhibition of POP activity” value in test [1] was “No inhibition”. Besides, the pKi in test [2] is 4.97.
